Measured values from patent publication US20070093520A1, “Method of treatment of diarrhea-predominant irritable bowel syndrome in a subject” (priority 2005, published 2007).

System: diarrhea-predominant IBS subjects
Assay: 3007 Study: open-label 52-week safety study, adverse events and withdrawals

Cc1nccn1C[C@H]1CCc2c(c3cccc4c3n2CCC4)C1=O [cilansetron, (R)-(−)-4,5,6,8,9,10-hexahydro-10-[(2-methyl-1H-imidazol-1-yl)methyl]-11H-pyrido-[3,2,1-jk]-carbazol-11-one]
3 (1%) n (%): TEAE: Sinus Congestion (P/C group) | TEAE: Supraventricular Arrhythmias (P/C group) | TEAE: Anal and Rectal Signs and Symptoms (Placebo/Cilansetron 2 mg) | TEAE: Arthralgia (Placebo/Cilansetron 2 mg) | TEAE: Aspartate Aminotransferase Increased (Placebo/Cilansetron 2 mg) | TEAE: Blood Creatinine Increased (Placebo/Cilansetron 2 mg) | TEAE: Bursal Disorders (Placebo/Cilansetron 2 mg) | TEAE: Ear Infections (Placebo/Cilansetron 2 mg)
15 (5%) n (%): TEAE: Diarrhoea (Excl Infective) (Placebo/Cilansetron 2 mg)
9 (3%) n (%): TEAE: Diarrhoea NOS (Placebo/Cilansetron 2 mg)
25 (9%) n (%): TEAE: Skin and Subcutaneous Tissue Disorders (P/C group)
2 (<1%) n (%): TEAE: Skin Injuries and Mechanical Dermatoses (P/C group) | TEAE: Skin Lesion NOS (P/C group) | TEAE: Sweating Increased (P/C group) | TEAE: Urticaria NOS (P/C group) | TEAE: Urticarias (P/C group) | TEAE: Blood Bilirubin Increased (Placebo/Cilansetron 2 mg) | TEAE: Blood Pressure Increased (Placebo/Cilansetron 2 mg) | TEAE: Bone Disorders NEC (Placebo/Cilansetron 2 mg) | TEAE: Bursitis (Placebo/Cilansetron 2 mg) | TEAE: Candida Infections (Placebo/Cilansetron 2 mg) | TEAE: Chest Wall Pain (Placebo/Cilansetron 2 mg) | TEAE: Connective Tissue Disorders (Excl Le) (Placebo/Cilansetron 2 mg) | TEAE: Dental Infections - Pathogen Class Unspecified (Placebo/Cilansetron 2 mg) | TEAE: Diarrhoea Aggravated (Placebo/Cilansetron 2 mg) | TEAE: Diarrhoea Haemorrhagic (Placebo/Cilansetron 2 mg) | TEAE: Dizziness (Placebo/Cilansetron 2 mg) | TEAE: Ear Infection NOS (Placebo/Cilansetron 2 mg)
5 (2%) n (%): TEAE: Bronchitis NOS (Placebo/Cilansetron 2 mg)
4 (1%) n (%): TEAE: Skin Neoplasms Malignant and Unspecified (Excl Melanoma) (P/C group) | TEAE: Upper Respiratory Tract Signs and Symptoms (P/C group) | TEAE: Abdominal Pain Upper (Placebo/Cilansetron 2 mg) | TEAE: Abdominal Tenderness (Placebo/Cilansetron 2 mg) | TEAE: Anal and Rectal Pains (Placebo/Cilansetron 2 mg) | TEAE: Blood Triglycerides Increased (Placebo/Cilansetron 2 mg) | TEAE: Blood Urine Present (Placebo/Cilansetron 2 mg) | TEAE: Blood in Stool (Placebo/Cilansetron 2 mg)
8 (3%) n (%): TEAE: Vascular Disorders (P/C group) | TEAE: Blood Cholesterol Increased (Placebo/Cilansetron 2 mg) | TEAE: Blood Creatine Phosphokinase Increased (Placebo/Cilansetron 2 mg) | TEAE: Cholesterol Analyses (Placebo/Cilansetron 2 mg)
7 (3%) n (%): TEAE: Vascular Hypertensive Disorders NEC (P/C group) | TEAE: Dyspepsia (Placebo/Cilansetron 2 mg) | TEAE: Dyspeptic Signs and Symptoms (Placebo/Cilansetron 2 mg)
21 (8%) n (%): TEAE: Abdominal Pain NOS (Placebo/Cilansetron 2 mg)
2 (1%) n (%): TEAE: Vulvovaginal Dryness* (P/C group) | TEAE: Vulvovaginal Signs and Symptoms* (P/C group)
6 (2%) n (%): TEAE: Abdominal Distension (Placebo/Cilansetron 2 mg) | TEAE: Abdominal Pain Lower (Placebo/Cilansetron 2 mg) | TEAE: Alanine Aminotransferase Increased (Placebo/Cilansetron 2 mg) | TEAE: Back Pain (Placebo/Cilansetron 2 mg)
62 (22%) n (%): TEAE: Constipation (Placebo/Cilansetron 2 mg)
1 (<1%) n (%): TEAE: Sexual Desire Disorders (P/C group) | TEAE: Sick Sinus Syndrome (P/C group) | TEAE: Sinus Arrhythmia (P/C group) | TEAE: Skin Disorder NOS (P/C group) | TEAE: Skin Neoplasms Benign (P/C group) | TEAE: Skin Ulcer (P/C group) | TEAE: Skin and Subcutaneous Tissue Ulcerations (P/C group) | TEAE: Social Circumstances (P/C group) | TEAE: Strabismus (P/C group) | TEAE: Stress Symptoms (P/C group) | TEAE: Structural and Other Bile Duct Disorders (P/C group) | TEAE: Sugar Intolerance (Excl Glucose Intolerance) (P/C group) | TEAE: Suicidal Ideation (P/C group) | TEAE: Suicidal and Self-Injurious Behaviour (P/C group) | TEAE: Supraventricular Tachycardia (P/C group) | TEAE: Surgical and Medical Procedures (P/C group) | TEAE: Swelling Face (P/C group) | TEAE: Tenderness NOS (P/C group) | TEAE: Thrombocytopenia (P/C group) | TEAE: Thrombocytopenias (P/C group) | TEAE: Thrombophlebitis Superficial (P/C group) | TEAE: Thyroid Hypofunction Disorders (P/C group) | TEAE: Thyroid Neoplasms (P/C group) | TEAE: Thyroid Nodule (P/C group) | TEAE: Total Fluid Volume Decreased (P/C group) | TEAE: Tympanic Membrane Disorder NOS (P/C group) | TEAE: Tympanic Membrane Disorders (Excl Infections) (P/C group) | TEAE: Urinary Abnormalities (P/C group) | TEAE: Urinary Frequency (P/C group) | TEAE: Urinary Tract Signs and Symptoms NEC (P/C group) | TEAE: Vascular Hypotensive Disorders (P/C group) | TEAE: Ventricular Arrhythmias and Cardiac Arrest (P/C group) | TEAE: Vertigo (P/C group) | TEAE: Visual Acuity Reduced (P/C group) | TEAE: Vitreous Disorder NOS (P/C group) | TEAE: Anal and Rectal Disorders NEC (Placebo/Cilansetron 2 mg) | TEAE: Animal Bite (Placebo/Cilansetron 2 mg) | TEAE: Arthropathies NEC (Placebo/Cilansetron 2 mg) | TEAE: Arthropod Bite (Placebo/Cilansetron 2 mg) | TEAE: Arthropod Sting (Placebo/Cilansetron 2 mg) | TEAE: Back Pain Aggravated (Placebo/Cilansetron 2 mg) | TEAE: Bladder Infection NOS (Placebo/Cilansetron 2 mg) | TEAE: Blood Alkaline Phosphatase NOS Increased (Placebo/Cilansetron 2 mg) | TEAE: Bone Density Decreased (Placebo/Cilansetron 2 mg) | TEAE: Bone Spur (Placebo/Cilansetron 2 mg) | TEAE: Bronchitis Acute NOS (Placebo/Cilansetron 2 mg) | TEAE: Bronchopneumonia NOS (Placebo/Cilansetron 2 mg) | TEAE: Candidal Infection NOS (Placebo/Cilansetron 2 mg) | TEAE: Carotid Bruit (Placebo/Cilansetron 2 mg) | TEAE: Carpal Tunnel Syndrome (Placebo/Cilansetron 2 mg) | TEAE: Cellulitis (Placebo/Cilansetron 2 mg) | TEAE: Change in Bowel Habit NOS (Placebo/Cilansetron 2 mg) | TEAE: Chapped Lips (Placebo/Cilansetron 2 mg) | TEAE: Colitis (Excl Infective) (Placebo/Cilansetron 2 mg) | TEAE: Colitis Ischaemic (Placebo/Cilansetron 2 mg) | TEAE: Dental Pain and Sensation Disorders (Placebo/Cilansetron 2 mg) | TEAE: Disturbances in Consciousness NEC (Placebo/Cilansetron 2 mg) | TEAE: Diverticulitis NOS (Placebo/Cilansetron 2 mg) | TEAE: Diverticulum Inflammations (Placebo/Cilansetron 2 mg) | TEAE: Dry Mouth (Placebo/Cilansetron 2 mg) | TEAE: Dysarthria (Placebo/Cilansetron 2 mg) | TEAE: Dyskinesias and Movement Disorders NEC (Placebo/Cilansetron 2 mg) | TEAE: ECG Investigations (Placebo/Cilansetron 2 mg) | TEAE: Electrocardiogram T Wave Inversion (Placebo/Cilansetron 2 mg) | TEAE: Enteritis (Placebo/Cilansetron 2 mg) | TEAE: Epigastric Discomfort (Placebo/Cilansetron 2 mg)
0 n (%): TEAE: Soft Tissue Neoplasms Benign NEC (P/C group) | TEAE: Stress Incontinence (P/C group) | TEAE: Tachycardia NOS (P/C group) | TEAE: Thyroid Disorders NEC (P/C group) | TEAE: Tinnitus (P/C group) | TEAE: Urinary Incontinence (P/C group) | TEAE: Urinary Retention (P/C group) | TEAE: Urinary Tract Lithiasis (Excl Renal) (P/C group) | TEAE: Urine Abnormal NOS (P/C group) | TEAE: Uterine Disorders NEC* (P/C group) | TEAE: Uterine Fibroids* (P/C group) | TEAE: Uterine Neoplasms Benign* (P/C group) | TEAE: Uterine Neoplasms* (P/C group) | TEAE: Uterine Polyp NOS* (P/C group) | TEAE: Vaginal Cyst* (P/C group) | TEAE: Vaginal Lesion* (P/C group) | TEAE: Varicose Vein Ruptured (P/C group) | TEAE: Varicose Veins Non-Site Specific (P/C group) | TEAE: Ventricular Extrasystoles (P/C group) | TEAE: Vulvovaginal Cysts and Neoplasms* (P/C group) | TEAE: Wheezing (P/C group) | TEAE: Abdominal Discomfort (Placebo/Cilansetron 2 mg) | TEAE: Abdominal Pain Aggravated (Placebo/Cilansetron 2 mg) | TEAE: Abdominal Rebound Tenderness (Placebo/Cilansetron 2 mg) | TEAE: Abnormal Reflexes (Placebo/Cilansetron 2 mg) | TEAE: Appendicitis (Placebo/Cilansetron 2 mg) | TEAE: Arthritis NOS (Placebo/Cilansetron 2 mg) | TEAE: Arthritis NOS Aggravated (Placebo/Cilansetron 2 mg) | TEAE: Back Injury NOS (Placebo/Cilansetron 2 mg) | TEAE: Bacteria Identification and Serology (Excl Mycobacteria) (Placebo/Cilansetron 2 mg) | TEAE: Bilirubin Urine (Placebo/Cilansetron 2 mg) | TEAE: Blood Creatine Phosphokinase Mb Increased (Placebo/Cilansetron 2 mg) | TEAE: Blood Glucose Increased (Placebo/Cilansetron 2 mg) | TEAE: Blood Potassium Increased (Placebo/Cilansetron 2 mg) | TEAE: Blood Sodium Increased (Placebo/Cilansetron 2 mg) | TEAE: Blood Uric Acid Increased (Placebo/Cilansetron 2 mg) | TEAE: Bone Disorder NOS (Placebo/Cilansetron 2 mg) | TEAE: Bone Injury (Placebo/Cilansetron 2 mg) | TEAE: Bunion (Placebo/Cilansetron 2 mg) | TEAE: Carbohydrate Tolerance Analyses (Incl Diabetes) (Placebo/Cilansetron 2 mg) | TEAE: Cardiac Auscultatory Investigations (Placebo/Cilansetron 2 mg) | TEAE: Cardiac Murmur NOS (Placebo/Cilansetron 2 mg) | TEAE: Cartilage Disorder NOS (Placebo/Cilansetron 2 mg) | TEAE: Cartilage Disorders (Placebo/Cilansetron 2 mg) | TEAE: Cervical Spasm (Placebo/Cilansetron 2 mg) | TEAE: Colonic Polyp (Placebo/Cilansetron 2 mg) | TEAE: Cystitis NOS (Placebo/Cilansetron 2 mg) | TEAE: Dental Disorders NEC (Placebo/Cilansetron 2 mg) | TEAE: Diaphragmatic Hernias (Placebo/Cilansetron 2 mg) | TEAE: Dyspepsia Aggravated (Placebo/Cilansetron 2 mg) | TEAE: Electrocardiogram Qrs Complex Abnormal (Placebo/Cilansetron 2 mg)
